According to patent US20220339178A1, “COMPOSITIONS AND METHODS FOR COGNITIVE PROTECTION OF POLLINATORS AGAINST PESTICIDES” (priority 2019, published 2022):

Test system: bumblebee Bombus impatiens
Test: Olfactory conditioning of PER in bumblebees: self-administered rutin vs chronic fipronil
Assay type: in vivo
Settings: bumblebees; score 0-10; self-administered 1 μM rutin six days; 6 nM fipronil feeder for the last three days (chronic)
Experimental: One colony of the bumblebee Bombus impatiens (Koppert Inc) was kept in laboratory conditions. Bees received pollen inside the nests and foraged to a 1M sugar-water feeder outside of the nest. Bees were collected while on the feeder and iced anesthetized to then be randomly assigned to one of four plastic containers where self-administration of one of two solutions was allowed to 10 bees out of two feeders (glass vials with 500 μL of solution each): i) 1 M sucrose water or ii) 1 μM Rutin (Sigma-Aldrich R5143) diluted in 1M sucrose water. Feeders were refilled each day for three days. On the night of the third day, one of the vials was replaced by a new one with one of two solutions: i) 1 M sucrose water or ii) 1M sucrose water+6 nM fipronil. Feeders were refilled each day for three more days, thus providing a chronic exposure to fipronil. On the night of the […] day, bees were iced anesthetized and yolked restrained in plastic pipettes. Thus, bees belonged to one of four treatments:
Control: self-administered sucrose water for six days
Rut: self-administered rutin for six days
Fipro: self-administered sucrose water for three days followed by three days of self-administered sucrose water (one feeder) and fipronil (one feeder).
Rut+Fipro: self-administered rutin for three days followed by three days of self-administered rutin (one feeder) and fipronil (one feeder).
All bees were blind-trained using olfactory conditioning of the proboscis extension response (PER). Briefly, bees were exposed to a presentation of 1-nonanol (Sigma-Aldrich) for 10 s. After 7 s of the onset of the odor presentation, the antenna was stimulated with 1.5 M sugar-water to elicit the PER. Following the PER, the bee was allowed to drink sugar-water for 3 s. Each paired presentation was considered a training trial and each individual received eleven training trials with an average intertrial interval of 10 minutes. After training, all bees were fed 20 μL of 1M sugar water and maintained in plastic boxes for 24 h until the retention test. […] Twenty-four hours after the last training trial the bees were presented with the conditioned odor for 10 s.
Learning for each individual was quantified as the number of conditioned PER responses across the trials. Thus, for each bee a learning score between zero and ten (0-10) was recorded.
Multiple comparisons were then run comparing learning score relative to Control bees using a non-parametric one or two-tailed Steel Method depending upon predictions. These comparisons informed us about the predicted impairment produced by the fipronil, the predicted innocuous effect of the rutin and the potential level of protection. Error due to multiple comparisons was controlled using the False Discovery Rate method (FDR-two stage sharpened method). In all cases corrected p-values (q-values) are presented.
Memory retention was quantified as a nominal variable (yes/no). Data were compared across treatments using a Chi-square test, followed by multiple comparisons of all treatments vs. Control. Error due to multiple comparisons was controlled using the FDR as indicated above. In all cases corrected p-values (q values) are presented.
Latency was quantified as a continuous variable between 0.5 s and 10 s. […]

C[C@@H]1O[C@@H](OC[C@H]2O[C@@H](Oc3c(-c4ccc(O)c(O)c4)oc4cc(O)cc(O)c4c3=O)[C@H](O)[C@@H](O)[C@@H]2O)[C@H](O)[C@H](O)[C@H]1O [Rutin]
learning score relative to Control bees: not significantly different
